Results on four compounds are retold here after patent US20070142431A1, “Quinoline 4-carboxamide derivatives and their use as neurokinin 3 (nk-3) receptor antagonists” (SmithKline Beecham Corporation, priority 2003, published 2007).

One data set addresses T1, NK1 receptor (Homo sapiens, UniProt P25103).
T1 construct: expressed in transfected cells; host or cells: CHO cell line, plasma membrane preparation
The data set is described as follows: NK binding affinity, scintillation proximity assay (SPA), 125I Substance P. The settings on record: plasma membrane from CHO cell lines expressing NK1, read-out: NK1 pKi (converted). As for the experimental part:
(§1) The NK binding affinity of the compounds of the invention was determined using the following scintillation proximity assay (SPA) (see H. M. Sarau et al, J. Pharmacol. Experimental Therapeutics 1997, 281(3), 1303-1311; H. M. Sarau et al, J. Pharmacol. Experimental Therapeutics 2000, 295(1), 373-381; G. A. M. Giardina et al J.Med.Chem 1999, 42, 1053-1065). ^125I Substance P, ^125I NKA and ^125I [MePhe7]-NKB were used in the binding SPA of NK1, NK2 and NK3 receptor, respectively. Polystrene Leadseeker WGA-SPA beads (Amersham Biosciences) were mixed with plasma membrane prepared from CHO cell lines expressing NK1, NK2 or NK3 in a bead/membrane ratio of 20:1 (w/w) in assay buffer (75 mM Tris pH 7.8, 75 mM NaCl, 4 mM MnCl2, 1 mM EDTA, 0.05% Chaps, 1 mM PMSF). The mixture was placed on ice for 30 minutes to allow the formation of membrane/bead complex before BSA was added to a final concentration of 1%. After another 30 minutes incubation on ice, the bead/membrane complex was washed twice and suspended in assay buffer. ^125I-labelled ligands were then added to the bead/membrane complex. 30 μl of the resulting mixture was then dispensed into each well of a Nalgen NUNC 384-well plate with 1 μl compound pre-dispensed in 50% DMSO. The plates were then sealed and pulse spun at 1100 rpm. After 3 hours incubation at room temperature with shaking, the plates were spun for 2 min at 1100 rpm and measured in Viewlux imager (PerkinElmer) for 5 minutes with a 618-nm filter. Inhibition of radioactive ligand binding to its respective receptor was measured by the reduction of signal. pKi was calculated using Kd of each radioactive ligand determined in a separate experiment.

The target of a further data set is T2, NK3 receptor (Homo sapiens, UniProt P29371).
T2 construct: expressed in transfected cells; host or cells: CHO cell line, plasma membrane preparation
T2 sequence (P29371 1-465): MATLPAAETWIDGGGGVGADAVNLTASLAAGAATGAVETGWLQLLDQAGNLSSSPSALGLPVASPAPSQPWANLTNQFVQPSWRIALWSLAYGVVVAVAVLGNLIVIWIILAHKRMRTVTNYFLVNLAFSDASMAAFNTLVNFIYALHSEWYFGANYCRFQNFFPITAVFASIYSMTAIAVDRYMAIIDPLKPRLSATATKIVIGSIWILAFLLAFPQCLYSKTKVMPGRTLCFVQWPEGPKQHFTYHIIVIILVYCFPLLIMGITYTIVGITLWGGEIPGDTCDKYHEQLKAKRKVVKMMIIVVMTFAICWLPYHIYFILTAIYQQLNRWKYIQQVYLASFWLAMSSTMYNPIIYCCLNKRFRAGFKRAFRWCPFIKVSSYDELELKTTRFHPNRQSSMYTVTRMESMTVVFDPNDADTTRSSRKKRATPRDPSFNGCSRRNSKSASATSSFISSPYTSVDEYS
The data set can be described thus: NK binding affinity, scintillation proximity assay (SPA), 125I [MePhe7]-NKB. The settings on record: plasma membrane from CHO cell lines expressing NK3, read-out: NK3 pKi (converted). As for the experimental part: as §1

The next data set addresses T3, NK2 receptor (Homo sapiens, UniProt P21452).
T3 construct: expressed in transfected cells; host or cells: CHO cell line, plasma membrane preparation
T3 sequence (P21452 1-398): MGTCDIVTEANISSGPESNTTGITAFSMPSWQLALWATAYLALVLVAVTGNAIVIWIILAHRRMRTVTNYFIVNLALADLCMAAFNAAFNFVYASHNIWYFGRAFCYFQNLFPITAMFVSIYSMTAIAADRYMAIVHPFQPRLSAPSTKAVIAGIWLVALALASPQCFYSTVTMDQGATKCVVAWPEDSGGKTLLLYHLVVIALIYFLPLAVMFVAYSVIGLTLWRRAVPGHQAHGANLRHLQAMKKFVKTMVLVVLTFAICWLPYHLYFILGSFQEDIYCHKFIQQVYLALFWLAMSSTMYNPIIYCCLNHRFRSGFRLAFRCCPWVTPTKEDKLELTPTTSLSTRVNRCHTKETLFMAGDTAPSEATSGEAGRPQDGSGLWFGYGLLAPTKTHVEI
The data set can be described thus: NK binding affinity, scintillation proximity assay (SPA), 125I NKA. The settings on record: plasma membrane from CHO cell lines expressing NK2, read-out: NK2 pKi (converted). The method, then: as §1

Data set [1] in a line: Measurement of brain exposure. The data set is classed as in vivo. The settings on record: rats, orally dosed 3 mg/kg as 1% methylcellulose suspension; brain homogenate concentration vs time over 12 hr. The method, then:
Compounds of the invention were orally dosed (3 mg/kg) to rats as 1% methylcellulose (w/v) suspensions. The rats were sacrificed after set time intervals and the concentration of the compound of the invention in brain homogenate was determined by protein precipitation followed by LC-MS-MS analysis of the extracts against standards prepared in brain homogenate. A graph of brain concentration against time was plotted over a 12 hr period. The area under the curve (AUC, units=hours.ng/g brain) was taken as a measure of brain exposure.

Structures are written as SMILES.

T1 sequence (P25103 whole entry): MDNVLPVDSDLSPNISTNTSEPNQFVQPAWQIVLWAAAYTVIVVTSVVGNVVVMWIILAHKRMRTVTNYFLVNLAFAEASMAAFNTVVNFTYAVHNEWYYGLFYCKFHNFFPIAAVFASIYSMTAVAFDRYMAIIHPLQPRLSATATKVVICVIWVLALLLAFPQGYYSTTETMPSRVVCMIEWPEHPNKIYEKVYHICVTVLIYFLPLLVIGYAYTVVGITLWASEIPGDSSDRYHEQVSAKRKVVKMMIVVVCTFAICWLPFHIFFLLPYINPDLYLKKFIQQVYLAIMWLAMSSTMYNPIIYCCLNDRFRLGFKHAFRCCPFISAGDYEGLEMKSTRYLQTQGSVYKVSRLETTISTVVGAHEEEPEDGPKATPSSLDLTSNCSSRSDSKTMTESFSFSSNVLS

As to `O=C(N[C@H](c1ccccc1)C1CC1)c1c(Cn2nccn2)c(-c2cccc(F)c2)nc2ccccc12` [Example 1, 2-(3-Fluoro-phenyl)-3-[1,2,3]triazol-2-ylmethyl-quinoline4-carboxylic acid ((S)-1-cyclopropyl-1-phenyl-methyl)-amide], the values for the Ki on NK1 receptor, on NK3 receptor and on NK2 receptor were 1 µM, 0.01 µM and 0.316 µM, respectively. The “Brain Exposure (AUC, h · ng/g brain)” value in data set [1] worked out at 1896 h · ng/g brain.
In the same order, the values of `O=C(N[C@H](c1cccc(F)c1)C1CC1)c1c(Cn2ncnn2)c(-c2ccccc2)nc2ccccc12` [Example 35, 2-Phenyl-3-tetrazol-2-ylmethyl-quinoline-4-carboxylic acid [(S)-1-cyclopropyl-1-(3-fluoro-phenyl)-methyl]-amide] are 1.26 µM, 0.00398 µM, 0.251 µM and 2361 h · ng/g brain.
For `O=C(N[C@H](c1cccc(F)c1)C1CC1)c1c(Cn2nccn2)c(-c2ccccc2)nc2ccccc12` [Example 37, 2-Phenyl-3-[1,2,3]triazol-2-ylmethyl-quinoline-4-carboxylic acid [(S)-1-cyclopropyl-1-(3-fluoro-phenyl)-methyl]-amide] the same measures were 0.631 µM, 0.00251 µM, 0.158 µM and 2091 h · ng/g brain.
In the same order, the values of `O=C(N[C@H](c1ccccc1)C1CC1)c1c(Cn2ncnn2)c(-c2cccc(F)c2)nc2ccccc12` [Example 45, 2-(3-Fluoro-phenyl)-3-tetrazol-2-ylmethyl-quinoline-4-carboxylic acid ((S)-1-cyclopropyl-1-phenyl-methyl)-amide] are 1.26 µM, 0.01 µM, 0.251 µM and 1900 h · ng/g brain.
